According to a melting point compilation (Tetko et al.; mined from patent text by program, amines drawn as free bases though some values may be those of a salt):

SMILES	melting point [°C]
O=c1[nH]ccc2c(OCc3ccccc3)cccc12	165 to 168
COC(=O)C(=C(C)C)N1CC(NC(=O)COc2ccccc2)C1=O (stereo not given)	154 to 155
O=C1c2cc(Cl)c(Cl)cc2C(=O)c2c1c(Cl)c1cc(Cl)c(Cl)cc1c2Cl	> 260
COc1c(N2CCC(c3ccccc3CN)C2)c(F)cc2c(=O)c(C(=O)O)cn(C3CC3)c12 (stereo not given)	170 to 174
COc1cc(C#N)cc2cc(CO)oc12	149 to 150
CCOC(=O)C1=C(CC)NN=C(C(=O)OC)C1c1cccc([N+](=O)[O-])c1 (stereo not given)	139
Nc1sc(/C=C/CC2CCCCC2)c(CN(C2CCCCC2)C2CCCCC2)c1C(=O)c1ccc(Cl)cc1	147 to 150
CCOC(=O)/C=C1\OC(=O)c2ccccc21	132 to 134
CCN(CC)CCNC(=O)N1CCCC(S(=O)(=O)c2ccc(OC)cc2)C1 (stereo not given)	118 to 121
N#Cc1ccc(N(Cc2ccc(O)c(Br)c2)n2cnnc2)cc1-c1ccoc1	200 to 201
Cc1nc(NC(=O)c2cnn3c(C(F)(F)F)cc(-c4ccc(C(F)(F)F)c(OCC(F)(F)F)c4)nc23)sc1S(N)(=O)=O	264
COC1CC2C3CCC4=CC(=O)CCC4(C)C3(F)CCC2(C)C1(OC(C)=O)C(=O)CCl (stereo not given)	241 to 244
CC(C)c1cc(S(=O)(=O)c2c(Br)cc(CC(N)C(=O)O)cc2Br)ccc1O (stereo not given)	210 to 217
Cn1ncc(N2CCCCC2)c(-c2ccccc2C=NO)c1=O	184 to 185
Clc1nc(-c2nc3ccccc3[nH]2)[nH]c1Cl	300
CCNC(=O)N1C[C@@H](c2c[nH]c3ccccc23)[C@H](c2cn3c4c(cccc24)CCC3)C1	278 to 279
COc1cc(/C=C(\C(=O)NCCCCCC(=O)NO)c2ccc(F)cc2)cc(OC)c1	104 to 105
NS(=O)(=O)c1ccc(-c2nc(-c3cnn4c(C(F)(F)F)cc(-c5ccc(C(F)(F)F)cc5)nc34)no2)s1	272
O=[N+]([O-])c1ccc(-c2cc(C(F)(F)C(F)(F)C(F)(F)F)nc(-c3ccc(C(F)(F)F)cc3)n2)cc1	191
C=C(C)C(=O)OCCNc1nc(Cl)nc(Cl)n1	138 to 140
NS(=O)(=O)c1cc2c(s1)S(=O)(=O)CCN2	250 to 252

SMILES	melting point [°C]
CN1CCC(C(=O)Nc2cccc(-c3ccnc4c(C(=O)c5cccs5)cnn34)c2)CC1	236
CN(C)C=Nc1sc(C=O)c(Cl)c1C#N	186
Cc1cc2cn[nH]c2c(C(=O)NC(C)C)c1NC(=O)c1cc(C(F)F)nn1-c1ncccc1Cl	250 to 253
CN(C(=O)c1ccc2c(c1)nc(NC(=O)c1cccs1)n2CCCC(=O)O)C1CCCCC1	256 to 258
CCCCCCCCCCCCCCCCCCOc1cc(OCCCCCCc2cccc(O)c2O)cc(C(=O)O)c1	92 to 94
O=C1NC(=O)C(Cc2ccc(S(=O)(=O)CCc3ccccc3)cc2)S1 (stereo not given)	201 to 203
C#Cc1c(NC)c(F)cc2c(=O)c(C(=O)O)cn(-c3cc(N)c(F)cc3F)c12	208 to 209
O=C(Nc1ccc(OC(F)(F)F)cc1)NC1CCN(C(=O)c2ccncc2)CC1	210 to 212
Cc1c(F)c(N2CCC(C)(CN)C2)cc2c1c(=O)c(C(=O)O)cn2C1CC1 (stereo not given)	250 to 252
O=C1O[C@@H](CN2CCC(Cc3ccc(F)cc3)CC2)CN1c1ccc(O)cc1	164 to 165
CCOC(=O)c1c(C)[nH]c(CC)c1C	108 to 109
CCCCCN(C(=O)OC(C)(C)C)c1nc(N(C)Cc2ccccc2)c2ncn(CC(=O)O)c2n1	116 to 127
Clc1ccc(-c2nnnn2Cc2cccnc2)cc1Cl	166 to 168
O=C1C(CC23CC(c4ccccc42)c2ccccc23)OCCN1Cc1ccccc1 (stereo not given)	155 to 156
CC1(C)Oc2ccc(C#N)cc2[C@@H](NC2=C(Cl)C(=O)CC2)[C@@H]1O (relative stereo)	288 to 289
COC(=O)C(=O)c1ccccc1F	98 to 100
Fc1cccc(-c2ccc3nncn3n2)c1	159 to 161
Cc1cn(C2CCN(c3c(F)c(C)c4c(=O)c(C(=O)O)cn(C5CC5)c4c3F)C2)nn1 (stereo not given)	232 to 234
N#Cc1nc2cc(Cl)c3cccnc3c2o1	214 to 215
Cc1ncc(CCCN2C(=O)c3ccccc3C2=O)s1	75
COc1cn(-c2ccc(N3CC(F)(F)C(F)(F)C3)cc2F)nc(-c2ccnn2-c2ccccc2)c1=O	175 to 177

SMILES	melting point [°C]
CCn1cc(C(=O)O)c(=O)c2cc(F)c(N3CCNCC3)c(F)c21	234 to 236
CC(C)(Cc1ccccc1)C(NC(=O)c1ccc(Cl)cc1)NC(=N[N+](=O)[O-])Nc1cccnc1 (stereo not given)	205 to 207
O=C(CC1CC2CCC1C2)NCC1CCN(c2ncccn2)CC1 (stereo not given)	121 to 126
CCCCCCOC(=O)C(CSC(=O)C(C)c1ccc(CC(C)C)cc1)NC(C)=O (stereo not given)	40 to 45
CC(=O)NCc1coc2c(OC(C)=O)cccc12	138 to 139
Cc1ccc(S(=O)(=O)NC[C@H](C)N)cc1	82 to 86
CCOC(=O)c1cnc(N2CCC[C@H]2CO)nc1NCc1ccc(OC)c(Cl)c1	88 to 90
CCOC(=O)Cn1c(C(=O)OCC)c2c(c1C(=O)OCC)OCCCO2	140
COC1C=C(C)C(=O)CC(C)(C)C1OC(=O)c1ccc([N+](=O)[O-])c([N+](=O)[O-])c1 (stereo not given)	103 to 104
CC(C)c1ccc(NC(=O)Cn2cnc3[nH]c(=O)[nH]c(=O)c32)cc1	320 to 325
CC(C)NP(N)(=O)NC(=O)c1ccc(F)cc1 (stereo not given)	197 to 199
CCCCCCCCCCCCOc1ccc(C2=C(O)CSC2=O)cc1	173 to 175
CCOC(=O)c1cnc2c(cnn2Cc2ccco2)c1O	103 to 106
CCN(CC)CCNC(=O)N1CCc2cc(OC)c(OC)cc2C1c1ccccc1 (stereo not given)	97 to 98
O=C1CCC(N2Cc3c(OCc4ccc(CN5CCc6cc(F)ccc6C5)cc4)cccc3C2=O)C(=O)N1 (stereo not given)	123 to 125
O=C(O)CC(c1ccccc1)C(F)(F)F (stereo not given)	72
O=C(CCl)Nc1cccc(NC(=O)Nc2ccc(N(CCCl)CCCl)cc2)c1	232 to 233
c1ccc(CC(Cc2ccccc2)(c2nnn[nH]2)c2nnn[nH]2)cc1	228 to 230
CCCN(CCC)C1Cc2c[nH]c3ccc(C(=O)C(C)(C)C)c(c23)C1 (stereo not given)	92
O=C(C=Cc1ccccn1)Nc1nnn[nH]1	275 to 276
COc1cc(OC)c(N2CCCC2)cc1/C=C/C(=O)c1ccc(S(=O)(=O)NCC(=O)O)cc1	155 to 158

Now from value to compound:

melting point [°C]	SMILES
174 to 176	Cc1c(O)ccc(-c2ccc(C#N)cc2)c1C
253 to 254	O=C(O)c1ccc(-c2nc(-c3cccc(C(F)(F)F)c3)co2)cc1
260	NC(=O)C1CCN(Cc2cnc3cc(NC(=O)c4ccc(-c5ccc(Cl)cc5)cc4)ccc3c2)CC1
126 to 128	O=Cc1cccc2cc3ccccc3cc12
211 to 213	CN(C)C(=O)c1nc(-c2ccccc2)nc2c1c1ccc(Cl)cc1n2C
268 to 272	Cc1cc2nncn2nc1-c1ccc(C(N)=S)cc1
161 to 163	Cc1ccc(OC(=O)N=C2NC(c3ccc(C)cc3)=NC2(C(F)(F)F)C(F)(F)F)cc1
158	Cc1ccc(N)cc1Nc1ncc(-c2ccncc2)o1
131	COC(=O)C(Cc1cccc(-c2nc(=O)c3ccccc3s2)c1)NC(=O)c1ccccc1 (stereo not given)
198 to 200	O=C(O)C1CCc2c(c3ccccc3n2C(=O)c2ccc3c(c2)OCO3)C1 (stereo not given)
112 to 114	COc1ccc(CC2c3c(cc(OC)c(OC)c3O)CCN2C)cc1 (stereo not given)
175 to 180	Cc1cc(C(=O)CCc2cc(-c3ccc(C(F)(F)F)cc3)nn2Cc2ccccc2)ccc1OCC(=O)O
81 to 83	CC(C)CC(Oc1c(Br)cc(-c2ccc(-c3c(Cc4ccccc4)oc4ccccc34)cc2)cc1Br)C(=O)O (stereo not given)
208 to 209	COc1ccnc(CCc2nc3cc(-c4ccc(S(=O)(=O)N5CCN(c6ccc(C)cc6C)CC5)cc4)cnc3[nH]2)c1
82 to 84	Cc1ccccc1-c1ccc(C=O)cn1
264 to 267	CCn1c2ccccc2c2cc(/C=C/C(=O)CC(=O)/C=C/c3ccc4c(c3)c3ccccc3n4CC)ccc21

melting point [°C]	SMILES
157 to 159	O=c1c2ccccc2c(Cc2ccc(F)cc2)nn1N1CCNCC1
169 to 171	CC(C)c1nc(-c2ccccc2)c(-c2ccccc2)c(-c2ccc(F)cc2)c1CO
94 to 95	OC(CCN1CCC(c2ccc(F)cc2)CC1)c1ccc(Cc2ccc(Cl)cc2)cc1 (stereo not given)
204 to 205	COC(=O)COc1ccc(C(=O)Nc2ccccc2Sc2ccccc2-c2nnn[nH]2)cc1
128 to 132	NCC(=O)Nc1ccc(Cl)cc1C(=NCCO)c1ccccc1F
164 to 166	COc1coc2cc(NS(C)(=O)=O)c(Oc3ccccc3)cc2c1=O
135 to 136	O=C(CC(O)(c1cc(Cl)cc(Cl)c1)C(F)(F)F)c1ccc(-n2cncn2)nc1 (stereo not given)
206 to 208	CC(C)(COc1ccc(Cl)cc1)C(=O)C(Oc1ccc(Cl)cc1)n1cncn1 (stereo not given)
143 to 144	CCCCc1oc2ccccc2c1C(=O)Nc1ccc(-c2ccc(OCC#N)cc2)cc1
266 to 267	CC(=O)c1ccc(-n2c(-c3sc(NC(=O)c4ccc(C)cc4)nc3-c3ccccc3)nc3ccccc3c2=O)cc1
174 to 175	Cc1oc(-c2ccccc2)nc1COc1ccc(COc2ncccc2C=CC(=O)O)cc1
157 to 159	CCOC(=O)c1cccc(/C=C/C(=O)c2cc(O)ccc2[N+](=O)[O-])c1
183 to 185	Oc1ccc(C2=C(c3ccccc3)CCCc3cc(OC4CCCCO4)ccc32)cc1 (stereo not given)
115 to 116	O=C(NC(Cc1ccc(C(F)(F)F)cc1)C(=O)c1ccc(F)cc1)c1cc(=O)cco1 (stereo not given)
113 to 122	Cc1cc(N)c(C)c(Cl)c1Oc1ccc(C(=O)c2ccc(Cl)cc2)cc1
126 to 128	NS(=O)(=O)c1ccc(-n2nc(C(=O)O)cc2-c2ccc(Cl)cc2)cc1
